This note sets out measurements from the Deep4Chem optical property database.

This series in a line: solvent given as SMILES.

Several values for one entry are separate records, joined by “and”; a condition that tells them apart may be missing. Equal entries are not always repeated.

As to `CCOC(=O)/C=C/c1cc2ccc(-c3cn(Cc4ccccc4)nn3)cc2oc1=O`, the emission maximum (in CCO) worked out at 435 nm.
On to `ClP1(Cl)=N[P@](Cl)(Oc2ccc3ccc4cccc5ccc2c3c45)=N[P@@](Cl)(Oc2ccc3ccc4cccc5ccc2c3c45)=N1`, for which the emission maximum (in ClCCl) stood at 419 nm.
For `CCC1=C(C)C2=C(C)c3cc(I)c(I)n3[B-](F)(F)[N+]2=C1C`, the emission maximum reads like this: (in C1CCCCC1) 546 nm; (in CC(C)=O) 544.5 nm; (in CCO) 548 nm; (in CCOC(C)=O) 544.5 nm; (in CO) 546 nm; (in OCC(F)(F)F) 542.5 nm.
Regarding `c1ccc(-c2nc(-c3ccc(-c4nc(-c5ccccc5)c(-c5ccccc5)[nH]4)cc3)[nH]c2-c2ccccc2)cc1`, the emission maximum is 421 nm (in C1CCOC1); 423.5 nm and 424 nm (in CC#N); 482 nm (in CC(=O)O); 420 nm (in CC(C)=O); 420 nm (in CCOC(C)=O); 419 nm (in CCOCC). In addition, the emission maximum is, setting by setting: (in CO) 417 nm; (in CS(C)=O) 410 nm; (in ClC(Cl)Cl) 437 nm.
In the case of `CN(C)c1ccc(C2=[N+]3C(=Nc4c(-c5ccc(O)cc5)cc(-c5ccc(N(C)C)cc5)n4[B-]3(F)F)C(c3ccc(O)cc3)=C2)cc1`, the emission maximum by setting is: (in C1CCOC1) 815 nm; (in CS(C)=O) 832 nm; (in Cc1ccccc1) 813 nm.
With `O=C1CCCC2=C1C(c1cccc(Cl)c1)c1c(c3ccccc3oc1=O)N2` (stereo not given), the emission maximum (in CS(C)=O) is reported as 443 nm.
`N#Cc1c(C#N)c(-n2c3ccccc3c3ccccc32)c(-n2c3ccccc3c3ccccc32)c(-n2c3ccccc3c3ccccc32)c1-n1c2ccccc2c2ccccc21` returned an emission maximum (in Cc1ccccc1) of 525 nm.
In the case of `Cc1ccc2c(c1)C1(c3ccccc3Oc3ccccc31)c1cc(C)ccc1N2c1ccc(-c2nc(-c3ccccc3)cc(-c3ccccc3)n2)cc1`, the emission maximum (in Cc1ccccc1) was 451 nm and the emission maximum (in O=P(c1ccccc1)(c1ccccc1)c1ccc2oc3ccc(P(=O)(c4ccccc4)c4ccccc4)cc3c2c1) was 452 nm.
Molecule `COC(=O)c1cc(=O)n(C)c2cc(-c3cc(OC)c(OC)c(OC)c3)sc12` had an emission maximum (in CC#N) of 495 nm and an emission maximum (in ClCCl) of 485 nm.
As for `COc1ccc(C#Cc2c3ccccc3c(C#Cc3ccc(OC)cc3)c3ccccc23)cc1`, the emission maximum (in ClCCl) came out at 492 nm.
`CN1CCN(c2cccc(/C=C/c3ncc(-c4ccc(OCc5ccccc5)c(OCc5ccccc5)c4)o3)c2)CC1` gave an emission maximum (in ClCCl) of 465 nm.
As for `COc1cc(/C=C/c2ccccc2)cc(OC)c1`, the emission maximum by setting is: (in C1CCCCC1) 364 nm; (in CC#N) 390 nm; (in CC(C)O) 382 nm; (in CCCCOCCCC) 372 nm; (in CCOC(C)=O) 382 nm; (in CCOCC) 374 nm.
In turn, `N#Cc1nn(-c2cccc(C(F)(F)F)c2)nc1N1CCCC1` came in with an emission maximum (in CC#N) of 430 nm.
Take `COC(=O)c1[nH]c(-c2ccccc2)c2nnc3c4ccccc4oc3c12`: the emission maximum (in ClCCl) is 473 nm.
The molecule `Cc1ccc(-c2ccc(/C=C/c3ccc(N(C)C)cc3)cn2)nc1` returned an emission maximum (in CC#N) of 532 nm.
As for `COc1cc(OC)c2c(c1)c1c(c3ccc(C(C)(C)C)cc32)=[N+]2C(=Nc3c(-c4cc(OC)c(OC)c(OC)c4)c4c5cc(OC)cc(OC)c5c5cc(C(C)(C)C)ccc5c4n3[B-]2(F)F)C=1c1cc(OC)c(OC)c(OC)c1`, under “in Cc1ccccc1”, the emission maximum was 809 nm.
`C(=C/c1ccc(N(c2ccccc2)c2ccccc2)cc1)/c1ccc(N(c2ccccc2)c2ccccc2)cc1`: the emission maximum (in ClCCl) amounted to 441 nm.
Still for that read-out and setting: the value for `COc1cc(OC)c2cc(C#N)c(=N)oc2c1` was 428 nm.
Under “in CO”, `O=C(O)c1ccc(-c2nc(-c3ccccc3)c(-c3ccccc3)[nH]2)cc1` yielded an emission maximum of 414.5 nm.
With `O=P1(c2ccccc2)C(c2ccc(N(c3ccccc3)c3ccccc3)cc2)=Cc2cc3ccccc3cc21` (stereo not given), the emission maximum reads like this: (in C1CCOC1) 511 nm; (in CC#N) 561 nm; (in CN(C)C=O) 551 nm; (in Cc1ccccc1) 478 nm; (in ClC(Cl)Cl) 516 nm; (in ClCCl) 533 nm.
`c1ccc(-c2ccc3c4ccc(-c5ccccc5)c5c(-c6ccccc6)ccc(c6cccc2c63)c54)cc1` registered an emission maximum (in ClCCl) of 500 nm.
As to `CCN(CC)c1ccc2cc(-c3cn4cc5ccccc5cc4n3)c(=O)oc2c1`, the emission maximum (in ClC(Cl)Cl) is 460 nm.
Molecule `c1ccc(-c2nc(-c3cccs3)[nH]c2-c2ccccc2)cc1` returned an emission maximum (in CC#N) of 391 nm.
As to `c1cc2c(C3SCCCS3)c3ccc(=[N+]4CCCCC4)cc-3oc2cc1N1CCCCC1`, for the setting “in CO”, the emission maximum worked out at 606.31 nm.
As to `COc1cc2c(cc1OC)C1=C[C@H](c3ccc(C)cc3)C3(C(C#N)=C(C#N)N1CC2)c1cc(Cl)ccc1-c1ccc(Cl)cc13`, under “in ClCCl”, the emission maximum is given as 402 nm.
Consider `COc1ccc(-n2c3ccccc3c3cc(C=C(C#N)C#N)ccc32)cc1`, for which the emission maximum (in C1CCOC1) stood at 499 nm; the emission maximum (in CC#N) came to 536 nm; the emission maximum (in CC(C)=O) was 525 nm; the emission maximum (in CCOC(C)=O) was 495 nm; the emission maximum (in CO) is 534 nm; the emission maximum (in CS(C)=O) came out at 547 nm. Besides, the emission maximum runs as follows: (in Cc1ccccc1) 450 nm; (in ClC(Cl)Cl) 511 nm.
In turn, `Cc1ccccc1N1c2sc3ccccc3c2Sc2sc3ccccc3c21` yielded an emission maximum (in ClCCl) of 564 nm.
For the setting “in Cc1ccccc1”, `Cc1cc(C)c(B(c2c(C)cc(C)cc2C)c2ccc3ccc4cccc5ccc2c3c45)c(C)c1` displayed an emission maximum of 423 nm.
Regarding `c1ccc2c(c1)-c1ccccc1C21c2ccccc2N(c2ccc(-c3nc([C@]45CC6CC(C[C@@H](C6)C4)C5)nc([C@]45C[C@H]6C[C@@H](C[C@H](C6)C4)C5)n3)cc2)c2ccccc21`, the emission maximum is reported as 448.69 nm (in CC(C)(C)c1ccc(-n2c3ccc([Si](c4ccccc4)(c4ccccc4)c4ccccc4)cc3c3cc([Si](c4ccccc4)(c4ccccc4)c4ccccc4)ccc32)cc1) and 454.71 nm (in Cc1ccccc1).
Take `COC(=O)c1cc(=O)n(C)c2cc(-c3ccccc3N(C)C)sc12`: the emission maximum (in CC#N) was determined as 484 nm and the emission maximum (in ClCCl) amounted to 537 nm.
As for `COc1cc2c(cc1/C=C(\C#N)c1nc3ccccc3s1)c1ccccc1n2C`, the emission maximum is, setting by setting: (in C1CCOC1) 499 nm; (in CC#N) 509 nm; (in CCOC(C)=O) 493 nm; (in CN(C)C=O) 508 nm; (in CO) 510 nm; (in CS(C)=O) 518 nm. The emission maximum is, setting by setting: (in Cc1ccccc1) 494 nm; (in ClC(Cl)Cl) 504 nm; (in ClCCl) 501 nm.
For the molecule `CB1C=Cc2ccc3ccccc3c2N1c1ccccc1`, the emission maximum (in C1CCCCC1) was found to be 387 nm.
As for `Nc1ccccc1C(=O)O`, the emission maximum runs as follows: (in C1CCCCC1) 387 nm; (in C1COCCO1) 395 nm; (in CC#N) 397 nm; (in CC(C)=O) 394 nm; (in CCO) 407 nm; (in CO) 406 nm. For the same molecule, the emission maximum is 400 nm (in CS(C)=O); 400 nm and 397 nm (in O); 423 nm (in OCC(F)(F)F); 394 nm (in c1ccccc1).
Turning to `Cc1c(C)n2c(COC(=O)CNC(=O)OC(C)(C)C)c(C)c(=O)n2c1=O`, the emission maximum (in CCO) was 459 nm.
For `F[B-]1(F)n2c(cc3oc(-c4ccccc4)cc32)C=C2C=c3oc(-c4ccccc4)cc3=[N+]21`, where the note is “in ClC(Cl)Cl”, the emission maximum is listed as 661 nm.
`N#Cc1cc(C#N)c(-c2ccc(N(c3ccccc3)c3ccccc3)cc2)cc1-c1ccc(N(c2ccccc2)c2ccccc2)cc1`: the emission maximum (in Cc1ccccc1) is on record as 477 nm.
As for `CCOC(=O)c1cc(C(=O)OCC)c2cccc(OC)c2n1`, the emission maximum (in CCO) is on record as 526 nm.
Where the note is “in C1COCCO1”, `CCC(C)(C)c1ccc(-c2ccc(-c3ccc(C(C)(C)CC)cc3)cc2)cc1` came in with an emission maximum of 354 nm.
Regarding `Cc1ccc(C(=O)/C=C/c2ccc(N(C)C)cc2)cc1`, the emission maximum by setting is: (in C1CCOC1) 503 nm; (in CC#N) 529 nm; (in CC(=O)O) 512 nm; (in CC(C)=O) 516 nm; (in CCO) 533 nm; (in CN(C)C=O) 528 nm. The molecule also returned an emission maximum (in CO) of 533 nm, an emission maximum (in Cc1ccccc1) of 477 nm, an emission maximum (in ClC(Cl)Cl) of 508 nm and an emission maximum (in c1ccccc1) of 473 nm.
In the case of `CC(C)(C)c1ccc2c(c1)B1c3cc(C(C)(C)C)ccc3Oc3cc(-n4c5ccccc5c5c6c(c7ccccc7n6-c6ccccc6)c6c(c7ccccc7n6-c6ccccc6)c54)cc(c31)O2`, the emission maximum (in Cc1ccccc1) is 456 nm.
`c1ccc2cc3c(cc2c1)-c1cccc2cc4ccccc4c-3c12` yielded an emission maximum (in CCCCCCC) of 471 nm.
As to `COc1ccccc1-c1nc2c([nH]1)C1=CC(=O)S[C@]1(C)[C@@]1(C)SC(=O)C=C21`, the emission maximum (in CC#N) is given as 505 nm.
Turning to `CCCCCCCCN1C(=O)c2ccc3c4c(-c5ccc(-n6c7ccccc7c7ccccc76)cc5)cc5c6c(cc(-c7ccc(-n8c9ccccc9c9ccccc98)cc7)c(c7ccc(c2c37)C1=O)c64)C(=O)N(CCCCCCCC)C5=O`, the emission maximum (in ClC(Cl)Cl) was 651 nm.
`C(#Cc1ccccc1)C1=Cc2ccc3ccccc3c2NB1c1ccccc1` yielded an emission maximum (in C1CCCCC1) of 416 nm.
In the case of `Cc1cc(C)c(B(c2ccc(-c3nc4c5ccccc5c5ccccc5c4[nH]3)cc2)c2c(C)cc(C)cc2C)c(C)c1`, the emission maximum (in C1CCOC1) was 456 nm; the emission maximum (in CC(C)=O) worked out at 469 nm; the emission maximum (in CS(C)=O) is given as 484 nm; the emission maximum (in Cc1ccccc1) is on record as 435 nm; the emission maximum (in ClCCl) is recorded as 454 nm.
As for `COC(=O)c1ccccc1-c1c2ccc(=[NH2+])cc-2oc2cc(N)ccc12`, the emission maximum by setting is: (in CC#N) 525 nm; (in CCO) 529 nm; (in CN(C)C=O) 538 nm; (in O) 527 nm.
